For 89 compounds, melting point results are on record in a melting point compilation (Tetko et al.; mined from patent text by program, amines drawn as free bases though some values may be those of a salt).

Bounds are passed on as bounds.

Usually melting point stands for the temperature of the solid-liquid transition. `COc1ccc(OC)c(CCc2ccc3c(c2)C(=O)NCN3)c1` came in with a melting point of 138 to 140 °C.
Turning to `Cc1cc(-c2noc(C(F)(F)F)n2)cc(C)c1OCCCc1cncs1`, the melting point was in the range of 95 to 97 °C.
On to `Cc1ccccc1Cc1cccc(-c2ncc3c(n2)CCOC3)n1`, for which the melting point is 132 to 133 °C.
Regarding `CCCN(CCC)C(=O)CNc1nc(-c2ccccc2)ncc1N`, the melting point was 120 to 122 °C.
In turn, `O=C(NC(c1ccccc1)c1ccccc1)N1CCC(c2ccccc2)(c2ccccc2)CC1` displayed a melting point of 232 to 234 °C.
For the compound `O=C(O)c1snc(-c2cc(C(F)(F)F)cc(C(F)(F)F)c2)c1C(=O)O`, the melting point is 193 to 194 °C.
Compound `O=C(C=Cc1ccccc1C(=O)Cl)c1ccc([N+](=O)[O-])cc1` gave a melting point of 133 to 134 °C.
As for `COC(=O)C1=NNC(C)=C(C(=O)OC)C1c1cc([N+](=O)[O-])ccc1Cl` (centres undefined), the figure is 193 to 194 °C; as for `CC(CCC(=O)N(C)C#N)C(=O)N(C)C#N` (centres undefined), 59.2 to 60.9 °C; as for `CCCCOCCOc1ccc(-c2ccc(N(C)Cc3cnn(C)c3)c(C=CC(=O)O)c2)cc1`, 125 to 127 °C.
Regarding `COc1cc2c(cc1C=NO)C(C)(C)CCC2(C)C`, the melting point lay within 182 to 183 °C.
The compound `CNn1c(C)nn(C(=O)NC(C)(C)C)c1=O` yielded a melting point of 150 °C.
The figure for `CCOCc1nc2c(N)nc3cc(-c4ccccc4)cnc3c2n1CC(C)(C)F` is 173 to 174 °C.
The compound `COc1cc2c(cc1Nc1ncc(Cl)c(N[C@H]3[C@@H](C(N)=O)[C@@H]4C=C[C@H]3C4)n1)CCN(Cc1ncco1)CC2` showed a melting point of 110 to 119 °C.
In turn, `O=[N+]([O-])c1nccn1COC(CO)CO` showed a melting point of 88 °C.
Consider `CC#CCOc1ccc(OCC(=O)NO)cc1`, for which the melting point lay in the range of 100 to 105 °C.
Turning to `Cc1cccc(C)c1NC(=O)N=C1CCCCCN1C`, the melting point was in the range of 128 to 130 °C.
As for `CCOP(=O)(Cc1cc2c(cc1CP(=O)(OCC)OCC)C(CC)(CC)N(Cc1ccccc1)C2(CC)CC)OCC`, the figure is 81 to 83 °C.
With `CC1(C)C(=O)Oc2c(S(C)(=O)=O)cc3cc(S(C)(=O)=O)c(Cn4cncn4)cc3c21`, the melting point was 263 to 264 °C.
As for `CC(C)(Oc1ccc(F)cc1Cl)C(=O)O`, the melting point lay in the range of 63 to 65 °C.
As to `COc1ccc(C2=NN(c3ccc(OCCCCBr)cc3)C(=O)[C@@H]3CC=CC[C@H]23)cc1OC`, the melting point lay in the range of 38 to 43 °C.
As for `Cc1cc(O)c(F)cc1[N+](=O)[O-]`, the figure is 110 to 112 °C; as for `CC(C)Oc1cc(CCCOc2ccc3ccccc3c2CC(=O)O)n(Cc2ccc(Cl)cc2Cl)n1`, 120 to 122 °C.
The compound `CCOC(=O)c1ccc(C=Cc2cc3ccccc3s2)s1` showed a melting point of 116 to 117 °C.
The figure for `O=C(Nc1c(Cl)cncc1Cl)c1ccc(OCC2CC2)c2oc3ccccc3c12` is 242 °C.
`Cn1cc(C=O)c2cccc(F)c21`: the melting point was in the range of 92 to 94 °C.
`CCNc1n[nH]c2ccc(C3C(C#N)=C(C)NC(C)=C3C#N)cc12` displayed a melting point of 248 °C.
The figure for `COc1nc(SC)cc2cnc(-c3ccccc3)n12` is 134 °C; for `CCCn1nc(-c2ccc(O)cc2)c2cccc(-c3ccccc3)c21` it is 171 to 172 °C; for `FC(F)(F)c1cc(Cl)c(-n2cccn2)c(Cl)c1` it is 83 to 85 °C.
As for `CC(=O)Nc1nc(O)c2cc(I)cnc2n1`, the figure is more than 280 °C; as for `CCCCC1(CC(=O)N(CC)CC)C(=O)N(c2ccccc2)N(c2ccccc2)C1=O`, 80.5 to 82 °C; as for `COCc1cc(C)nc2nc(S(=O)(=O)Nc3c(C)cccc3Cl)nn12`, 227 °C.
For `CCCCNCC(=O)Nc1ccc2c(c1)C(=O)c1cc(NC(=O)CNCCCC)ccc1C2=O`, the melting point was found to be 125 °C.
For `Oc1ccc(CCNc2ncnc3c(F)ccc(F)c23)cc1`, the melting point fell in the range of 221 to 222 °C.
With `O=C(Nc1cc(Cl)c(O)c(Cl)c1)c1cc(F)ccc1O`, the melting point fell in the range of 227 to 229 °C.
Consider `COc1ccccc1SCCCCCCCC(=O)O`, for which the melting point fell in the range of 62 to 63 °C.
Turning to `CCc1c(F)c(F)c(-n2ncc(C#N)c2NCC(C)C(=O)O)c(F)c1F` (centres undefined), the melting point was 138 to 140 °C.
`COc1ccc(C2=NN(c3ccc(C4=NNC(=O)CC4C)cc3)C(=O)C3CC=CCC23)cc1Cl` (centres undefined) showed a melting point of 198 to 201 °C.
Regarding `COc1ccc(SSc2ccc(OC)cc2C(=O)NC(CC(C)C)C(=O)O)c(C(=O)NC(CC(C)C)C(=O)O)c1` (centres undefined), the melting point was 168 to 169 °C.
Take `COc1ccc(C(=O)Nc2ccc(C(=O)Nc3ccccc3)cc2)cc1C12CC3CC(CC(C3)C1)C2`: the melting point was 265 to 268 °C.
Compound `CNC(=O)C=C1CC2(CCCC2)c2ccccc21` displayed a melting point of 178 °C.
As for `COC(=O)C(=C1NCCCO1)[N+](=O)[O-]`, the figure is 132 to 133 °C; as for `Fc1cccc(F)c1-c1nc(COc2ccc(Oc3ccc(C(F)(F)F)cc3)cc2)no1`, 83 to 84 °C.
The figure for `C=CCSc1nnc(OCC)c2c1CCCC2` is 39 to 41 °C; for `N#Cc1cc(N)c(Cl)cc1C#N` it is 206 to 209 °C.
`CCOC(=O)c1cc(NCc2ccccc2)c(Oc2cccc(C(F)(F)F)c2)c(S(N)(=O)=O)c1` registered a melting point of 166 to 168 °C.
With `N#Cc1ccc2nc3sc(-c4ccccc4)cc3c(=O)n2c1`, the melting point was in the range of 349 to 351 °C.
`CCCCCCCCCCCCCCCCCCC(N)(CO)CO` had a melting point of 76 to 80 °C.
The compound `CCc1ccc(OCCCN2CCN(c3ccc(Cl)nn3)CC2)cc1` registered a melting point of 123 to 125 °C.
As for `Cc1cc(C(=O)NCCO)ncc1C(c1cc(F)ccc1F)S(=O)(=O)c1cc(F)cc(F)c1` (centres undefined), the figure is 82 to 84 °C; as for `Cc1cc2c(c(C)c1S(=O)(=O)C[N+](=O)[O-])CCCS2(=O)=O`, 168 to 170 °C.
Turning to `COCCn1c(C)nc2c(N)nc3ccccc3c21`, the melting point lay in the range of 230 to 233 °C.
The figure for `CCC(CC)c1nn(-c2ccc(C(F)(F)F)nn2)cc1CCCO` is 86 to 87 °C.
In turn, `COc1cc(CC(=O)CCNCCOc2ccc(C(=O)O)cc2OC)ccc1NC(=O)Nc1ccccc1F` had a melting point of 105 to 110 °C.
Take `CCCOc1ccc(S(=O)(=O)N2CCN(CC)CC2)cc1C(=O)Nc1c(C(N)=O)nn(Cc2ccccn2)c1CC`: the melting point is 191 to 192 °C.
`COc1cc2c(I)cn(C)c2cc1OC`: the melting point lay in the range of 80 to 90 °C.
In the case of `CC(Nc1nc(NN)nc(Cl)c1-c1c(F)cccc1Cl)C(F)(F)F` (centres undefined), the melting point was 120 to 122 °C.
Take `O=C(O)c1c(Br)cc(OCc2ccccc2)cc1OCc1ccccc1`: the melting point fell in the range of 90 to 91 °C.
`CCCCCCC(C)(C)c1ccc(C2=CCCC3(C2)OCCO3)c(O)c1` showed a melting point of 97 to 98 °C.
`Nc1nccc(Oc2ccc3c(C(=O)Nc4cccc(C(F)(F)F)c4)cccc3c2)n1`: the melting point turned out to be 218 °C.
As for `CNc1nc(C)c(C(=O)c2sc(NC)nc2C)s1`, the figure is 184 to 185 °C; as for `COc1cc(NC(=O)c2cccc(CCl)c2)cc(OC)c1OC`, 138 to 145 °C.
`COc1c(N2CCC(NC3CC3)C(C)C2)c(F)c(N)c2c(=O)c(C(=O)O)cn(C3CC3)c12` (centres undefined) displayed a melting point of 218 to 220 °C.
`CC(=O)OC1c2ccccc2-c2[nH]c(=O)c(=O)[nH]c21` (centres undefined) registered a melting point of more than 300 °C.
As for `O=Cc1cc2c(s1)CCc1cc(=O)n(-c3ccc(Cl)cc3)nc1-2`, the figure is 242 to 244 °C; as for `CCSC1OC(CO)C(OC2OC(CO)C(O)C(O)C2O)C(O)C1O` (centres undefined), 191 to 192 °C; as for `CS(=O)(=O)c1ccc(C(=O)O)c([N+](=O)[O-])c1`, 204 to 206 °C.
Compound `Cc1c(Cc2cccc(C(F)(F)F)c2)oc2cccc(O)c12` showed a melting point of 91 to 92 °C.
As for `CCC(C(C)=CC(CNC(=O)c1cnc2nc(C)ccc2c1O)=NO)[N+](=O)[O-]` (centres undefined), the figure is 204 to 205 °C; as for `CC(C)NC(=O)c1cc(-n2c(=O)cc(C(F)(F)F)[nH]c2=O)c(F)cc1Cl`, 234 to 239 °C; as for `CC(=O)N(C(C)=O)C(C)=C1CC2C3CC4C2C4C13` (centres undefined), 112 to 128 °C.
The compound `CN1CCN(C2=Nc3cc(Cl)cc4ccn(c34)-c3ccccc32)CC1` registered a melting point of 184 to 186 °C.
Regarding `CN1Cc2c(-c3noc(CCl)n3)ncn2-c2cccc(F)c2C1=O`, the melting point was 206 °C.
Compound `CCOC(=O)c1cnc2c3ccccc3ccn2c1=N` yielded a melting point of 197 to 199 °C.
On to `C/C(=C\C=C(c1ccccc1)c1ccccc1)C(=O)NCCCCc1cccnc1`, for which the melting point was 93 to 94 °C.
As for `Cn1c(=O)oc2cc(C(=O)CCN3CCN(c4ccc(F)cc4)CC3)ccc21`, the figure is 149 °C; as for `CCc1c2nc(-c3cc(S(C)(=O)=O)ccc3OCC(C)C)[nH]c(=O)c2nn1C1CCN(C(C)C)CC1`, 273 to 275 °C.
As to `Cc1ccc(C(=O)c2cc([N+](=O)[O-])ccc2N2CCC(C)CC2)cc1`, the melting point was found to be 86 °C.
In turn, `CCOc1ccc(-c2c(C)c3cc(O)ccc3n2Cc2ccc(OCCN3CCCCC3)cc2)cc1` displayed a melting point of 173 to 175 °C.
In turn, `CCOC(=O)C=Cc1cccc(Cl)c1Cl` yielded a melting point of 69 to 70 °C.
With `COc1cccc(C(N)=O)c1SSc1c(OC)cccc1C(N)=O`, the melting point lay within 188 to 189 °C.
Consider `Cc1cc(C(F)(F)F)ccc1NC(=O)C(C)(C)C`, for which the melting point lay in the range of 111 to 114 °C.
The compound `Cn1c2c(c3cc(OCc4ccccc4)ccc31)CC(CCN)C2` (centres undefined) displayed a melting point of 72 to 75 °C.
As to `Cc1cccc(C)c1NC(=O)N(Cc1ccccc1)CC(c1ccccc1)c1ccccc1`, the melting point fell in the range of 205 to 208 °C.
The figure for `Cc1ccc(C2c3c(C)c(N4CCN(c5cccnc5)CC4)c(C)c(C)c3OC2(C)C)cc1` (centres undefined) is 136 to 137 °C; for `OC(CNCCc1ccsc1)c1ccccc1` (centres undefined) it is 75 °C.
In turn, `O=C(CCCCCOc1ccc(-c2ccccc2)cc1)NO` came in with a melting point of 151 to 152 °C.
The figure for `Cc1ccc(S(=O)(=O)OCC2COc3cc(Cl)c(Cl)cc3O2)cc1` (centres undefined) is 124 to 125 °C.
